pIC50: −log10 of the molar value.
What was measured:
[1] = system: NCI-H460; assay: NCI 60 five dose assay, Non-small cell lung cancer; type: cell-based, human
[2] = system: U251; assay: NCI 60 five dose assay, CNS cancer; type: cell-based, human
[3] = system: SF-295; assay: NCI 60 single dose screen, CNS cancer; type: cell-based, human; conditions: single dose 10 μM
Experimental: (§1) The newly synthesized pyrazoles 2a–g, 7a–d, 8a and b, 9, and 10 were submitted to the National Cancer Institute (NCI) Developmental Therapeutics Program (http://www.dtp.nci.nih.gov) for assessment of their potential antiproliferative activity against a panel of NCI 60 cancer cell lines. All compounds were approved for screening against the approved 60 cancer cell lines at a single dose of 10 μM. The human cancer cell lines were derived from 9 variant cancer types including leukemia, melanoma, lung, colon, CNS, ovarian, renal, prostate and breast cancers. The results are presented as percentage of growth inhibition (GI%) of the screened compounds against the full panel of cell lines.
(§2) Under sterile conditions, the cell lines were grown in RPMI 1640 media (Gibco, NY, USA) supplemented with 10% fetal bovine serum (Biocell, CA, USA), and […] cell/mL was used to test the growth inhibition activity of the synthesized compounds. The compounds with concentrations ranging from 0.01 to 100 μM were prepared in phosphate buffer saline. Each compound was initially solubilized in dimethyl sulfoxide (DMSO); however, each final dilution contained less than 1% DMSO. Solutions of different concentrations (0.2 mL) were pipetted into the separate well of a microtiter tray in duplicate. […] After 48 h, the cells in each well were diluted 10 times with saline and counted using a Coulter counter. […]

[4] = system: SF-268; assay: NCI 60 single dose screen, CNS cancer; type: cell-based, human; conditions: single dose 10 μM
Experimental: as §1, §2

[5] = system: SK-MEL-2; assay: NCI 60 five dose assay, Melanoma; type: cell-based, human
[6] = system: OVCAR-3; assay: NCI 60 five dose assay, Ovarian cancer; type: cell-based, human
[7] = system: EKVX; assay: NCI 60 five dose assay, Non-small cell lung cancer; type: cell-based, human
[8] = system: SNB-19; assay: NCI 60 five dose assay, CNS cancer; type: cell-based, human
[9] = system: UACC-62; assay: NCI 60 five dose assay, Melanoma; type: cell-based, human
[10] = system: HCC-2998; assay: NCI 60 five dose assay, Colon cancer; type: cell-based, human
[11] = system: HCT-116 cells; assay: Flow cytometric analysis of apoptosis (Annexin V-FITC/PI); type: cell-based; conditions: 1.806 μM, 48 h
Experimental: For the detection of apoptosis in the treated cells, the Annexin V-FITC-apoptosis detection kit (PN IM3546) was used, followed by flow cytometric analysis according to the manufacturer's protocol. In this assay, HCT-116 cells were allowed to grow in a […] flask until 70–80% confluence. Then, the HCT-116 cells were treated with compound 4 for 48 h, followed by washing with PBS, and suspended in binding buffer. To […] of the cell suspension, […] of annexin V-FITC solution and […] of dissolved PI were added and incubated for 15 min in the dark. Then […] of ice-cold binding buffer was added and mixed gently. The flow cytometric analysis of the percentage of apoptotic cells was performed on a COULTER® EPICS® XL™ Flow Cytometer (USA).[35]

[12] = in vitro; conditions: human
[13] = system: HL-60(TB); assay: NCI 60 five dose assay, Leukemia; type: cell-based, human
[14] = system: NCI-H522; assay: NCI 60 five dose assay, Non-small cell lung cancer; type: cell-based, human
[15] = system: IGROV1; assay: NCI 60 five dose assay, Ovarian cancer; type: cell-based, human
[16] = Homo sapiens, read-out: LC50 (the source's name)

Compound: CC(=NNc1ccc(S(N)(=O)=O)cc1)c1ccc(NN=C2C(=O)NN=C2Nc2ccccc2)cc1 [Compound 4, 4-(2-(1-(4-(2-(5-oxo-3-(phenylamino)-1,5-dihydro-4H-pyrazol-4-ylidene)hydrazinyl)phenyl)ethylidene)hydrazinyl)benzene sulfonamide]
- GI50 ([1]; Homo sapiens): 3.21 µM
- CC50 [1, 16]: 45.3 µM
- Percent Growth ([1]; Log10 Concentration -4.0 Molar): -78%
- Percent Growth ([1]; Log10 Concentration -5.0 Molar): 4%
- Percent Growth ([1]; Log10 Concentration -6.0 Molar): 97%
- Percent Growth ([1]; Log10 Concentration -7.0 Molar): 103%
- Percent Growth ([1]; Log10 Concentration -8.0 Molar): 102%
- GI50 ([2]; Homo sapiens, U-251): 1.88 µM
- CC50 ([2]; Homo sapiens, U-251, read-out: LC50 (the source's name)): 7.51 µM
- Percent Growth ([2]; Log10 Concentration -4.0 Molar): -100%
- Percent Growth ([2]; Log10 Concentration -5.0 Molar): -71%
- Percent Growth ([2]; Log10 Concentration -6.0 Molar): 96%
- Percent Growth ([2]; Log10 Concentration -7.0 Molar): 105%
- Percent Growth ([2]; Log10 Concentration -8.0 Molar): 95%
- GI% [3]: 94.88%
- GI% [4]: 90.67%
- GI50 ([5]; Homo sapiens): 2.11 µM
- CC50 [5, 16]: 9.1 µM
- Percent Growth ([5]; Log10 Concentration -4.0 Molar): -96%
- Percent Growth ([5]; Log10 Concentration -5.0 Molar): -56%
- Percent Growth ([5]; Log10 Concentration -6.0 Molar): 101%
- Percent Growth ([5]; Log10 Concentration -7.0 Molar): 104%
- Percent Growth ([5]; Log10 Concentration -8.0 Molar): 98%
- GI50 ([6]; Homo sapiens): 1.87 µM
- CC50 [6, 16]: 12.5 µM
- Percent Growth ([6]; Log10 Concentration -4.0 Molar): -100%
- Percent Growth ([6]; Log10 Concentration -5.0 Molar): -45%
- Percent Growth ([6]; Log10 Concentration -6.0 Molar): 86%
- Percent Growth ([6]; Log10 Concentration -7.0 Molar): 89%
- Percent Growth ([6]; Log10 Concentration -8.0 Molar): 82%
- GI50 ([7]; Homo sapiens): 5.39 µM
- CC50 [7, 16]: > 100 µM
- Percent Growth ([7]; Log10 Concentration -4.0 Molar): -48%
- Percent Growth ([7]; Log10 Concentration -5.0 Molar): 36%
- Percent Growth ([7]; Log10 Concentration -6.0 Molar): 89%
- Percent Growth ([7]; Log10 Concentration -7.0 Molar): 102%
- Percent Growth ([7]; Log10 Concentration -8.0 Molar): 98%
- GI50 ([8]; Homo sapiens): 2.59 µM
- CC50 [8, 16]: 29.6 µM
- Percent Growth ([8]; Log10 Concentration -4.0 Molar): -100%
- Percent Growth ([8]; Log10 Concentration -5.0 Molar): -5%
- Percent Growth ([8]; Log10 Concentration -6.0 Molar): 89%
- Percent Growth ([8]; Log10 Concentration -7.0 Molar): 94%
- Percent Growth ([8]; Log10 Concentration -8.0 Molar): 91%
- GI50 ([9]; Homo sapiens): 1.96 µM
- CC50 [9, 16]: 9.6 µM
- Percent Growth ([9]; Log10 Concentration -4.0 Molar): -93%
- Percent Growth ([9]; Log10 Concentration -5.0 Molar): -53%
- Percent Growth ([9]; Log10 Concentration -6.0 Molar): 92%
- Percent Growth ([9]; Log10 Concentration -7.0 Molar): 93%
- Percent Growth ([9]; Log10 Concentration -8.0 Molar): 89%
- GI50 ([10]; Homo sapiens): 2.29 µM
- CC50 [10, 16]: 21.3 µM
- Percent Growth ([10]; Log10 Concentration -4.0 Molar): -100%
- Percent Growth ([10]; Log10 Concentration -5.0 Molar): -26%
- Percent Growth ([10]; Log10 Concentration -6.0 Molar): 93%
- Percent Growth ([10]; Log10 Concentration -7.0 Molar): 88%
- Percent Growth ([10]; Log10 Concentration -8.0 Molar): 80%
- Apoptosis, Late ([11]; control 0.13): 15.81%
- Apoptosis, Early ([11]; control 0.35): 4.63%
- Necrosis ([11]; control 1.58): 7.21%
- Apoptosis, Total ([11]; control 2.06): 27.65%
- pIC50 [12]: 4.39
- GI50 ([13]; Homo sapiens): 2.86 µM
- CC50 [13, 16]: 60.5 µM
- Percent Growth ([13]; Log10 Concentration -4.0 Molar): -70%
- Percent Growth ([13]; Log10 Concentration -5.0 Molar): 21%
- Percent Growth ([13]; Log10 Concentration -6.0 Molar): 74%
- Percent Growth ([13]; Log10 Concentration -7.0 Molar): 87%
- Percent Growth ([13]; Log10 Concentration -8.0 Molar): 89%
- GI50 ([14]; Homo sapiens): 2.17 µM
- CC50 [14, 16]: 74.8 µM
- Percent Growth ([14]; Log10 Concentration -4.0 Molar): -52%
- Percent Growth ([14]; Log10 Concentration -5.0 Molar): -36%
- Percent Growth ([14]; Log10 Concentration -6.0 Molar): 94%
- Percent Growth ([14]; Log10 Concentration -7.0 Molar): 97%
- Percent Growth ([14]; Log10 Concentration -8.0 Molar): 89%
- GI50 ([15]; Homo sapiens, IGROV-1): 4.5 µM
- CC50 ([15]; Homo sapiens, IGROV-1, read-out: LC50 (the source's name)): 43.2 µM
- Percent Growth ([15]; Log10 Concentration -4.0 Molar): -97%
- Percent Growth ([15]; Log10 Concentration -5.0 Molar): 32%
- Percent Growth ([15]; Log10 Concentration -6.0 Molar): 85%
- Percent Growth ([15]; Log10 Concentration -7.0 Molar): 94%
- Percent Growth ([15]; Log10 Concentration -8.0 Molar): 90%

Source: PMC11520566, “Discovery of pyrazole-based analogs as CDK2 inhibitors with apoptotic-inducing activity: design, synthesis and molecular dynamics study” (RSC Advances, 2024)
